Test results taken from patent US6069172A, “(R)-2-(3-benzoylphenyl) propionic acid salts and pharmaceutical preparations containing them” (priority 1998, dated 2000).

Experiments:
T-cell = conditions: stimulated by these agonists; cited from earlier work
PMN leukocytes = conditions: cited from earlier work
PMN leucocyte = conditions: 200 mg for 10 days; cited from earlier work
neutrophil = conditions: Ca^++ ionophore and FLMP; cited from earlier work
[1] = test system: carrageenin-induced pleural exudate; PMN cell migration; conditions: cited from earlier work
[2] = test system: chemotactic activity induced by zymosan; conditions: healthy volunteers and patients; cited from earlier work
TXB2 synthesis = TXB2 synthesis inhibition in human blood; assay type: cell-based; conditions: index of platelet antiaggregating properties
[3] = test system: carrageenin-induced oedema; conditions: compared with racemate and (S) enantiomer; rats; cited from earlier work
[4] = test system: croton oil-induced ear oedema; conditions: compared with racemate and (S) enantiomer; mice; cited from earlier work
platelet aggregation = assay: inhibitory action on platelet aggregation
gastrolesive action = conditions: in vivo
pain perception = conditions: men; compared with (S) enantiomers; cited from earlier work
[5] = test system: ultra-violet radiation-induced epidermal erythema; conditions: topic; guinea pigs; cited from earlier work
[6] = rats; in words; cited from earlier work

4-[3-(4-Fluorophenyl)]-2-[[4-(N-3-(2-quinolinmethoxy) phenyl)]amino]phenylpropylbenzoic acid [ETH-615]
T-cell migration (T-cell): no effects
chemotaxis of PMN leukocytes induced by FLMP (PMN leukocytes; FLMP): only slightly inhibited
chemotaxis of PMN leukocytes induced by IL-8 or LTB4 (PMN leukocytes; IL-8 or LTB4): clearly inhibited

CC(C(=O)O)c1cccc(C(=O)c2ccccc2)c1 (racemic) [ketoprofen]
PMN leucocyte fagocytosis (PMN leucocyte): reduction
bactericidal function of PMN (PMN leucocyte): not affected
inhibition of neutrophil activation / blockade of Ca^++ ion entry (neutrophil): completely inactive
migration of cells into the pleural cavity, later study ([1]; later demonstration against the earlier one): exatly the opposite
migration of cells into the pleural cavity ([1]; oral, PMN cells vs monocytes, thought in 1975): inhibit the migration of PMN cells, but not that of monocytes
carrageenin-induced formation of pleural exudate ([1]; oral): inhibited
chemotactic activity induced by zymosan [2]: inhibited

C[C@@H](C(=O)O)c1cccc(C(=O)c2ccccc2)c1 [(R)-ketoprofen, (R)-2-(3-benzoylphenyl)propionic acid]
inhibition of COX-1 (COX-1): do not inhibit
IC50 (TXB2 synthesis): 9.75 ± 0.75 mM
in vivo antiinflammatory effectiveness, carrageenin-induced oedema [3]: significantly lower than those of the racemate and of the (S) enantiomer
in vivo antiinflammatory effectiveness, croton oil-induced ear oedema [4]: significantly lower than those of the racemate and of the (S) enantiomer
inhibitory action on platelet aggregation (platelet aggregation): substantially devoid
gastrolesive action (gastrolesive action): substantially devoid
inhibition of pain perception (pain perception): efficacy at least similar to that of the (S) enantiomers
Protection, UV radiation-induced epidermal erythema [5]: 53.1±4.6%
inhibition of COX-2 (COX-2): do not inhibit
conversion of (R) into (S) enantiomer [6]: completely converted
